Measured values taken from patent US8324267B2, “Kinase inhibitors and the use thereof” (Forschungzentrum Karlsruhe GmbH, priority 2001, dated 2012).

Key:
[1] = test system: Human umbilical vein endothelial cells (HUVEC); test: Endothelial cell proliferation, 3H-thymidine incorporation; format: cell-based; settings: 24 h, FIG. 2
Description: Human umbilical vein endothelial cells (HUVEC) underwent serum-starved cultivation for 24 h. The cells were then preincubated with the appropriate compounds for 2 h and subsequently cultivated in the presence of the inhibitors with VEGF (MAE87) or bFGF (MAE106, MAZ51) for a further 24 h. The cells were then incubated with ^3H-thymidine. The amount of radioactivity incorporated into the cellular DNA was measured. All the experiments were carried out in triplicate.
HUVE cells were seeded in 100 μl/well (10^5 cells/ml) in 96-well culture plates and left to rest overnight. The cells were then starved with 50 μl of serum-free medium/well for 24 h. Subsequently, 50 μl of various concentrations of the test substances in serum-free medium (contains 2% DMSO) were added and incubated at 37° C. for 2 h. The medium containing the test compounds was removed and replaced by 50 μl of fresh medium with bFGF (12.5 ng/ml) or VEGF (100 ng/ml). Fresh dilutions of the doubly concentrated test substances in serum-free medium with 2% DMSO were added to the cells in 50 μl/well. The final concentration of DMSO was always 1%. After 24 h, ^3H-thymidine (1 μCi/well) was added, and the cells were incubated for a further 4-6 h. To analyze the incorporated radioactivity, the cells were trypsinized for 30 min and harvested with the aid of a harvester 96 cell (Tomtec) and fixed on a glass fiber membrane filter. The immobilized radioactivity was quantified with the aid of a MicroBeta TriLux liquid scintillation luminescence counter. The result is depicted in FIG. 2.
FIG. 2: Measurement of the (^3H)-thymidine incorporation into human endothelial cells (HUVEC) as a function of the concentration of inhibitors employed (MAE87, MAE106 and MAZ51). The inhibition of cell proliferation by MAE87, MAE106 and MAZ51 is dose-dependent in this case.

[2] = molecular target: VEGFR-3 (Homo sapiens, UniProt P35916); test: Ligand-induced autophosphorylation in VEGFR-3-expressing PAE cells (immunoprecipitation, Western blot); format: cell-based; settings: for inhibition of ligand-induced autophosphorylation of VEGFR-3: PAE/VEGFR-3 cells, VEGF-C stimulated, 0.5, 5 or 50 μM, FIG. 1
Sequence of VEGFR-3 (P35916 25-1363): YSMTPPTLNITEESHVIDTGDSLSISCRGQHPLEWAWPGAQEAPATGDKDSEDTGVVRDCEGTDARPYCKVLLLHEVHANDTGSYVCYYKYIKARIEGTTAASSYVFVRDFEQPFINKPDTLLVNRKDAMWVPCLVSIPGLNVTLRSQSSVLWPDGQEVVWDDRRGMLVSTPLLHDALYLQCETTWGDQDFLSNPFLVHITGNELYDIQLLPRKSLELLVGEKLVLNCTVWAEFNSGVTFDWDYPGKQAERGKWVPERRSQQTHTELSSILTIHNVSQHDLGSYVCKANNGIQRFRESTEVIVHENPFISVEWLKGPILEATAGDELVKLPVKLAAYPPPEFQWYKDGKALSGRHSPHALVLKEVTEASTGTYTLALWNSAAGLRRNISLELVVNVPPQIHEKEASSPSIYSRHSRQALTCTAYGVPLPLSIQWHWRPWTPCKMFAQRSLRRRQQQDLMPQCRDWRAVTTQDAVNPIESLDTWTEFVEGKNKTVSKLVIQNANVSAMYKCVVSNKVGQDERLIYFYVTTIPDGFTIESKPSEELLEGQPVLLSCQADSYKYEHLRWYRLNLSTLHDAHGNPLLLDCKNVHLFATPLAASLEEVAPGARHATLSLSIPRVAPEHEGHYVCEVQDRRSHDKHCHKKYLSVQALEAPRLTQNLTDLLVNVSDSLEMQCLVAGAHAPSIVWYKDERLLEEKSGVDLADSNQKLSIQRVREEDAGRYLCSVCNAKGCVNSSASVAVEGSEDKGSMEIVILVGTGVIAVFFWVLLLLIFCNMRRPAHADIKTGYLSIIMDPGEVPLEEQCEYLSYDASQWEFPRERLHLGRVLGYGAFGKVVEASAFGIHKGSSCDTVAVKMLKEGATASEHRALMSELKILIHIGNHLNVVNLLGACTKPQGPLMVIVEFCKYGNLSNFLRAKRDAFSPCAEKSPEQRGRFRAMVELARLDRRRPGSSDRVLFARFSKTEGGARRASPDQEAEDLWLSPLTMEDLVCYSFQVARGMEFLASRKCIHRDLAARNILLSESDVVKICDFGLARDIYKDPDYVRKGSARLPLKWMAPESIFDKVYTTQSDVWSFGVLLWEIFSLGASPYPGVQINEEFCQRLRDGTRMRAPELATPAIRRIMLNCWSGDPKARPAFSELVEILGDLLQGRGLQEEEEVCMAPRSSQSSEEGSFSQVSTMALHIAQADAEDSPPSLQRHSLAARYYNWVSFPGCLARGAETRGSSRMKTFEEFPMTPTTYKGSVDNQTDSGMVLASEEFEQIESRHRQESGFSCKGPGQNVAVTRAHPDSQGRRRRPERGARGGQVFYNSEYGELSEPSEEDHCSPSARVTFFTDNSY
Description: VEGFR-2- and VEGFR-3-expressing PAE cells (pig aorta endothel cells) were incubated with 0.5 μM, 5 μM or 50 μM of the appropriate test compound. The cells were then stimulated with VEGF (VEGFR-2) or VEGF-C (VEGFR-3) or without growth factor as negative control. The cells were harvested after 15 min and immunoprecipitated with VEGFR-2 or VEGFR-3. The immunoprecipitates were blotted after electrophoresis and investigated with anti-phosphotyrosine antibody. The blots were detached and investigated with VEGFR-2 or VEGFR-3 antibody to check the loading.
PAE/VEGFR-2 or PAE/VEGFR-3 were seeded in 15 cm tissue culture tissues and cultivated to 50% confluence. The cells were then starved in serum-free medium (with 0.2% BSA) for 16-24 h (PAE/VEGFR-3) or 72 h […]. After preincubation with 5 ml of 1 mM serum-free medium (1 mM Na3VO4) and various inhibitor concentrations for 30-60 min, the cells were stimulated at 37° C. for 5 min (VEGFR-3) or 8 min (VEGFR-2). The cells were then rapidly washed twice with ice-cold PBS (with 1 mM Na3VO4) and lysed with ice-cold modified RIPA buffer (30 mM Tris-HCl, pH 7.4, 150 mM NaCl, 1 mM EDTA, 0.5% (v/v) Triton X100, 0.5% (w/v) sodium deoxycholate, 10 mM NaF) freshly prepared with 1 mM PMSF, 0.1 U/ml aprotinin, 10 ng/ml leupeptin and 5 mM Na3VO4. The cells were harvested from the plate with the aid of a rubber policeman and collected in centrifuge tubes on ice. The lysates were solubilized by forcing through a syringe with a 25 G needle, and were centrifuged at 4° C./13 000 rpm for 15 min to remove insoluble constituents.
The clear lysates were incubated with 4 μg of anti-VEGFR-2 (C-1158, Santa Cruz) or […] at 4° C. overnight.
The receptor-antibody complex was precipitated by adding 30 μl of protein A-Sepharose (Amersham)/tube and incubating at 4° C. for a further 2 hours.
The Sepharose were then centrifuged at 4° C. for 1 min and washed three times with cold washing buffer (30 mM Tris-HCl, pH 7.4, 150 mM NaCl, 1 mM EDTA, 0.5% (v/v) Triton X100, 0.5% (w/v) sodium deoxycholate, 10 mM NaF) freshly prepared with 1 mM PMSF, 0.1 U/ml aprotinin, 10 ng/ml leupeptin and 5 mM Na3VO4. The remainder of the washing buffer was removed by aspiration through a syringe provided with a 27 G needle. The Sepharose beads were resuspended in 50 μl of SDS loading buffer, boiled and loaded onto a 6% […] gel. After the electrophoretic fractionation, the proteins were fixed on an appropriate membrane by Western blotting. The blots were investigated first with the aid of an anti-phosphotyrosine antibody (RC20:HRPO, Becton Dickinson) and then the first antibody was removed again in order to investigate the blot for the protein loading with specific anti-receptor antibodies. […]

| SMILES | inhibition of cell proliferation (3H-thymidine incorporation) ([1]; VEGF stimulated) | inhibition of ligand-induced autophosphorylation of VEGFR-3 [2] | inhibition of cell proliferation (3H-thymidine incorporation) ([1]; bFGF stimulated) | selectivity of inhibition of autophosphorylation, VEGFR-3 versus VEGFR-2 ([2]; 5 μM, PAE cells) |
| --- | --- | --- | --- | --- |
| O=C1Nc2ccccc2C1=Cc1ccc(O)cc1O [MAE87, 3-(2,4-Dihydroxybenzylidene)-1,3-dihydroindol-2-one] | dose-dependent | Inhibit the Ligand-Induced Autophosphorylation | – | – |
| COc1ccc(C=C2C(=O)Nc3ccccc32)cc1F [MAE106, 3-(3-Fluoro-4-methoxybenzylidene)-1,3-dihydroindole-2-one] | – | Inhibit the Ligand-Induced Autophosphorylation | dose-dependent | – |
| CN(C)c1ccc(C=C2C(=O)Nc3ccccc32)c2ccccc12 [MAZ51, 3-(4-Dimethylaminonaphthalen-1-ylmethylene)-1,3-dihydroindol-2-one] | – | Inhibit the Ligand-Induced Autophosphorylation | dose-dependent | selectively inhibits VEGFR-3 |
